Data from patent US6333320A, “Hexahydro-1,4-diazepine derivatives or salts thereof” (Yamanouchi Pharmaceutical Co., priority 1997, dated 2001).
Counter-ions that a name gives are not always drawn.

Each compound was assayed against T1, human activated blood coagulation factor X (Homo sapiens, UniProt P00742) (assay: measuring the time for blood coagulation with the human activated blood coagulation factor X). Details: dose of the test compound for 2-time prolongation of the coagulation time; human plasma, 37° C.; read-out: Test for measuring coagulation time with the human activated blood coagulation factor X, CT2.
T1 construct: disulfide-linked light and heavy chains of one precursor) added to human plasma with CaCl2; clotting time CT2
T1 sequence (P00742 41-179): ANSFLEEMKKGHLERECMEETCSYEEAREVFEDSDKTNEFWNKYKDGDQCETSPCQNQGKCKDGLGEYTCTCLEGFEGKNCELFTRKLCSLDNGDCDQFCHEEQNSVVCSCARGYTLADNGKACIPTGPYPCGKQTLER
T1 sequence (P00742 235-488): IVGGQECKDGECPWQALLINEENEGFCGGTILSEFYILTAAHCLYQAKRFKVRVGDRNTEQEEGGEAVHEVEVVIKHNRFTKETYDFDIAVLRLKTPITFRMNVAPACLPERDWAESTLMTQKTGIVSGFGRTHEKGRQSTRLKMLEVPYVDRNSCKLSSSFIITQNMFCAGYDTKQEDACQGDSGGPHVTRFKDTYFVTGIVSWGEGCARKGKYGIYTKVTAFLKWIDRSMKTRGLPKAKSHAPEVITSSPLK
Format: biochemical
Protocol: 1) Method of measuring the time for blood coagulation with the human activated blood coagulation factor X:
The human activated blood coagulation factor X (Cosmo-Bio Co.) was dissolved in 0.05 M tris-HCl buffer (pH=7.40) to prepare its solution of 0.05 units/ml. Blood was collected in 3.8% sodium citrate to be 1/10 by volume, and centrifuged at 3,000 rpm for 10 minutes to separate human plasma therefrom. 90 μl of the thus-prepared human plasma, 10 μl of a test compound as diluted with physiological saline, and 50 μl of the solution of the activated blood coagulation factor X were kept warmed at 37° C. for 3 minutes, to which was added 100 μl of a solution of 20 mM CaCl2, and the time for blood coagulation in the system was measured.
To measure the coagulation time, used was Amelung's KC4A. The dose of the test compound for 2-time prolongation of the coagulation time (hereinafterreferred to as CT2) was calculated on the basis of the coagulation time for the control to which was added 10 μl of physiological saline with no test compound.

Compound	EC (2-fold clotting time) [µM]
CCOC(=O)CC(=O)N(Cc1ccc2ccc(C(=N)N)cc2c1)c1ccc(N2CCCN(C(C)=N)CC2)cc1 [Example 24, Ethyl N-[4-(4-acetimidoylhexahydro-1H-1,4-diazepin-1-yl)phenyl]-N-[(7-amidino-2-naphthyl)methyl]malonamate]	0.152
CC(=N)N1CCCN(c2ccc(N(Cc3ccc4ccc(C(=N)N)cc4c3)C(=O)CCC(=O)O)cc2)CC1 [Example 36, N-[4-(4-Acetimidoylhexahydro-1H-1,4-diazepin-1-yl)phenyl]-N-[(7-amidino-2-naphthyl)methyl] succinamic acid]	0.069
CC(=N)N1CCCN(c2ccc(N(Cc3ccc4ccc(C(=N)N)cc4c3)S(=O)(=O)CC(=O)O)cn2)CC1 [Example 32, [N-[6-(4-Acetimidoylhexahydro-1H-1,4-diazepin-1-yl)-3-pyridyl]-N-[(7-amidino-2-naphthyl)methyl]sulfamoyl]acetic acid]	0.089
CCOC(=O)CS(=O)(=O)N(Cc1ccc2ccc(C(=N)N)cc2c1)c1ccc(N2CCCN(C(C)=N)CC2)cc1 [Example 22, ethyl [N-[4-(4-acetimidoylhexahydro-1H-1,4-diazepin-1-yl)phenyl]-N-[(7-amidino-2-naphthyl)methyl]-sulfamoyl]acetate dihydrochloride]	0.111
CC(=N)N1CCCN(c2ccc(N(Cc3ccc4ccc(C(=N)N)cc4c3)C(C)=O)cc2)CC1 [Example 17]	0.092
CCOC(=O)CNS(=O)(=O)N(Cc1ccc2ccc(C(=N)N)cc2c1)c1ccc(N2CCCN(C(C)=N)CC2)cc1 [Example 23, Ethyl N-[N-[4-(4-acetimidoylhexahydro-1H-1,4-diazepin-1-yl)phenyl]-N-[(7-amidino-2-naphthyl)methyl]-sulfamoyl]glycinate]	0.11
CC(=N)N1CCCN(c2ccc(N(Cc3ccc4ccc(C(=N)N)cc4c3)S(=O)(=O)CC(=O)O)cc2)CC1 [Example 33, [N-[4-(4-acet-imidoylhexahydro-1H-1,4-diazepin-1-yl)phenyl]-N-[(7-amidino-2-naphthyl)methyl]sulfamoyl]acetic acid dihydro-chloride]	0.098

Next, values leading:

EC (2-fold clotting time) [µM]	Compound
0.224	CCOC(=O)CCC(=O)N(Cc1ccc2ccc(C(=N)N)cc2c1)c1ccc(N2CCCN(C(C)=N)CC2)nc1 [Example 73]
0.095	CC(=N)N1CCCN(c2ccc(N(Cc3ccc4ccc(C(=N)N)cc4c3)C(=S)NCC(=O)O)cc2)CC1 [Example 75, N-[4-(4-Acetimidoylhexahydro-1H-1,4-diazepin-1-yl)phenyl]-N-[(7-amidino-2-naphthyl)methyl]thioamido-acetic acid]
0.119	CCOC(=O)CC(=O)N(Cc1ccc2ccc(C(=N)N)cc2c1)c1ccc(N2CCCN(C(C)=N)CC2)nc1 [Example 72]
0.134	CC(=N)N1CCCN(c2ccc(N(Cc3ccc4ccc(C(=N)N)cc4c3)C(=O)CCC(=O)O)cn2)CC1 [Example 84]
